Laboratory results from ChEMBL document CHEMBL4312026, “Synthesis, biological and molecular dynamics investigations with a series of triazolopyrimidine/triazole-based benzenesulfonamides as novel carbonic anhydrase inhibitors” (Eur J Med Chem, 2020).

How the values were obtained:
Carbonic anhydrase 1 [1] = target: T1, Carbonic anhydrase 1 (Homo sapiens, UniProt P00915); test: Inhibition of recombinant human carbonic anhydrase-1 incubated for 15 mins by stopped flow CO2 hydrase assay
Carbonic anhydrase 2 [2] = target: T2, Carbonic anhydrase 2 (Homo sapiens, UniProt P00918); test: Inhibition of recombinant human carbonic anhydrase-2 incubated for 15 mins by stopped flow CO2 hydrase assay
Carbonic anhydrase 9 [3] = target: T3, Carbonic anhydrase 9 (Homo sapiens, UniProt Q16790); test: Inhibition of recombinant human carbonic anhydrase-9 incubated for 15 mins by stopped flow CO2 hydrase assay
Carbonic anhydrase 1 [4] = target: T1, Carbonic anhydrase 1; test: Inhibition of recombinant human carbonic anhydrase-1 at 0.01 uM after 15 mins by stopped flow CO2 hydrase assay (reference value: 0%)
Carbonic anhydrase 1 [5] = target: T1, Carbonic anhydrase 1; test: Inhibition of recombinant human carbonic anhydrase-1 at 0.1 uM after 15 mins by stopped flow CO2 hydrase assay (reference value: 0%)
Carbonic anhydrase 1 [6] = target: T1, Carbonic anhydrase 1; test: Inhibition of recombinant human carbonic anhydrase-1 at 1 uM after 15 mins by stopped flow CO2 hydrase assay (reference value: 0%)
Carbonic anhydrase 1 [7] = target: T1, Carbonic anhydrase 1; test: Inhibition of recombinant human carbonic anhydrase-1 at 10 uM after 15 mins by stopped flow CO2 hydrase assay (reference value: 0%)
Carbonic anhydrase 2 [8] = target: T2, Carbonic anhydrase 2; test: Inhibition of recombinant human carbonic anhydrase-2 at 0.01 uM after 15 mins by stopped flow CO2 hydrase assay (reference value: 0%)
Carbonic anhydrase 2 [9] = target: T2, Carbonic anhydrase 2; test: Inhibition of recombinant human carbonic anhydrase-2 at 0.1 uM after 15 mins by stopped flow CO2 hydrase assay (reference value: 0%)
Carbonic anhydrase 2 [10] = target: T2, Carbonic anhydrase 2; test: Inhibition of recombinant human carbonic anhydrase-2 at 1 uM after 15 mins by stopped flow CO2 hydrase assay (reference value: 0%)
Carbonic anhydrase 2 [11] = target: T2, Carbonic anhydrase 2; test: Inhibition of recombinant human carbonic anhydrase-2 at 10 uM after 15 mins by stopped flow CO2 hydrase assay (reference value: 0%)
Carbonic anhydrase 9 [12] = target: T3, Carbonic anhydrase 9; test: Inhibition of recombinant human carbonic anhydrase-9 at 0.1 nM after 15 mins by stopped flow CO2 hydrase assay (reference value: 0%)
Carbonic anhydrase 9 [13] = target: T3, Carbonic anhydrase 9; conditions: at 1 nM
Description: Inhibition of recombinant human carbonic anhydrase-9 at 1 nM after 15 mins by stopped flow CO2 hydrase assay (Rvb = 0%)

Carbonic anhydrase 9 [14] = target: T3, Carbonic anhydrase 9; conditions: at 0.01 µM
Description: Inhibition of recombinant human carbonic anhydrase-9 at 0.01 uM after 15 mins by stopped flow CO2 hydrase assay (Rvb = 0%)

Carbonic anhydrase 9 [15] = target: T3, Carbonic anhydrase 9; conditions: at 0.1 µM
Description: Inhibition of recombinant human carbonic anhydrase-9 at 0.1 uM after 15 mins by stopped flow CO2 hydrase assay (Rvb = 0%)

T1 sequence (P00915 whole entry): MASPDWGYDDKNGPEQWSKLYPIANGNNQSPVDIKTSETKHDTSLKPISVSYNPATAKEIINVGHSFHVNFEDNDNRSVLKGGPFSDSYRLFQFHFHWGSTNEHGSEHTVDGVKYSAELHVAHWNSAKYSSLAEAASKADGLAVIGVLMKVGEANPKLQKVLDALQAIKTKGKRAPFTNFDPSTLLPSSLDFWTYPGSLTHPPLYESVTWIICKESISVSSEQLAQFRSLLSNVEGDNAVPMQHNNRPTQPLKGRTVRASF

NNC(=O)c1nc(N)n(-c2ccc(S(N)(=O)=O)cc2)n1
Ki (Carbonic anhydrase 1 [1]): 523 nM
Ki (Carbonic anhydrase 2 [2]): 19.9 nM
Ki (Carbonic anhydrase 9 [3]): 22.8 nM

Nc1nc(C(=O)N/N=C/c2ccc([N+](=O)[O-])cc2)nn1-c1ccc(S(N)(=O)=O)cc1
Ki (Carbonic anhydrase 1 [1]): 1540 nM
Ki (Carbonic anhydrase 2 [2]): 24.7 nM
Ki (Carbonic anhydrase 9 [3]): 34.4 nM

CCOC(=O)c1nn(-c2ccc(S(N)(=O)=O)cc2)c2nc(C)cc(=O)n12
Ki (Carbonic anhydrase 1 [1]): 698 nM
Ki (Carbonic anhydrase 2 [2]): 85.6 nM
Ki (Carbonic anhydrase 9 [3]): 35.9 nM

Nc1nc(C(=O)NNC(=S)Nc2ccc(Cl)cc2)nn1-c1ccc(S(N)(=O)=O)cc1
Ki (Carbonic anhydrase 1 [1]): 598 nM
Ki (Carbonic anhydrase 2 [2]): 11.1 nM
Ki (Carbonic anhydrase 9 [3]): 16.7 nM

C/C(=N\NC(=O)c1nc(N)n(-c2ccc(S(N)(=O)=O)cc2)n1)c1ccccc1
Ki (Carbonic anhydrase 1 [1]): 633 nM
Ki (Carbonic anhydrase 2 [2]): 8.9 nM
Ki (Carbonic anhydrase 9 [3]): 41.3 nM

Nc1nc(C(=O)NNC(=S)Nc2ccccc2)nn1-c1ccc(S(N)(=O)=O)cc1
Ki (Carbonic anhydrase 1 [1]): 368 nM
Ki (Carbonic anhydrase 2 [2]): 9.7 nM
Ki (Carbonic anhydrase 9 [3]): 40.2 nM

COC(=O)c1nn(-c2ccc(S(N)(=O)=O)cc2)c2nc3cc(-c4cccs4)cc(-c4ccc([N+](=O)[O-])cc4)c3c(=O)n12
Ki (Carbonic anhydrase 9 [3]): 0.16 nM

Nc1nc(C(=O)N/N=C/c2ccccc2)nn1-c1ccc(S(N)(=O)=O)cc1
Ki (Carbonic anhydrase 1 [1]): 771 nM
Ki (Carbonic anhydrase 2 [2]): 86.4 nM
Ki (Carbonic anhydrase 9 [3]): 41.1 nM

Nc1nc(NC(=O)Nc2ccc(C(=O)O)cc2)nn1-c1ccc(S(N)(=O)=O)cc1
Ki (Carbonic anhydrase 1 [1]): 507 nM
Ki (Carbonic anhydrase 2 [2]): 9.6 nM
Ki (Carbonic anhydrase 9 [3]): 15.3 nM

Nc1nc(NC(=O)Nc2ccc(Cl)cc2)nn1-c1ccc(S(N)(=O)=O)cc1
Ki (Carbonic anhydrase 1 [1]): 403 nM
Ki (Carbonic anhydrase 2 [2]): 9.5 nM
Ki (Carbonic anhydrase 9 [3]): 43.3 nM

Cc1cc(=O)n2c(C(=O)N/N=C/c3ccccn3)nn(-c3ccc(S(N)(=O)=O)cc3)c2n1
Ki (Carbonic anhydrase 1 [1]): 3720 nM
Ki (Carbonic anhydrase 2 [2]): 537 nM
Ki (Carbonic anhydrase 9 [3]): 47.9 nM

Nc1nc(C(=O)N/N=C/c2ccc(N3CCOCC3)cc2)nn1-c1ccc(S(N)(=O)=O)cc1
Ki (Carbonic anhydrase 1 [1]): 988 nM
Ki (Carbonic anhydrase 2 [2]): 64.2 nM
Ki (Carbonic anhydrase 9 [3]): 19.7 nM

Nc1nc(NC(=O)Nc2ccc(S(N)(=O)=O)cc2)nn1-c1ccc(S(N)(=O)=O)cc1
Ki (Carbonic anhydrase 1 [1]): 677 nM
Ki (Carbonic anhydrase 2 [2]): 78.7 nM
Ki (Carbonic anhydrase 9 [3]): 28.6 nM

CC(=O)OC[C@@H]1O[C@@H](OCc2cn(-c3ccc(S(N)(=O)=O)cc3)nn2)[C@@H](OC(C)=O)[C@H](OC(C)=O)[C@H]1OC(C)=O
Ki (Carbonic anhydrase 9 [3]): 9.7 nM

Cc1cc(=O)n2c(C(=O)N/N=C/c3ccncc3)nn(-c3ccc(S(N)(=O)=O)cc3)c2n1
Ki (Carbonic anhydrase 1 [1]): 2480 nM
Ki (Carbonic anhydrase 2 [2]): 456 nM
Ki (Carbonic anhydrase 9 [3]): 24.6 nM

Nc1nc(C(=O)N/N=C/c2cccnc2)nn1-c1ccc(S(N)(=O)=O)cc1
Ki (Carbonic anhydrase 1 [1]): 477 nM
Ki (Carbonic anhydrase 2 [2]): 74.2 nM
Ki (Carbonic anhydrase 9 [3]): 6.6 nM

C/C(=N\NC(=O)c1nc(N)n(-c2ccc(S(N)(=O)=O)cc2)n1)c1ccncc1
Ki (Carbonic anhydrase 1 [1]): 295 nM
Ki (Carbonic anhydrase 2 [2]): 8.5 nM
Ki (Carbonic anhydrase 9 [3]): 5.8 nM

Nc1nc(C(=O)NNC(=O)Nc2ccccc2)nn1-c1ccc(S(N)(=O)=O)cc1
Ki (Carbonic anhydrase 1 [1]): 307 nM
Ki (Carbonic anhydrase 2 [2]): 70.5 nM
Ki (Carbonic anhydrase 9 [3]): 4.9 nM

Nc1nc(C(=O)N/N=C/c2ccc(O)cc2)nn1-c1ccc(S(N)(=O)=O)cc1
Ki (Carbonic anhydrase 1 [1]): 335 nM
Ki (Carbonic anhydrase 2 [2]): 8.8 nM
Ki (Carbonic anhydrase 9 [3]): 8.3 nM

Nc1nc(C(=O)N/N=C/c2ccc(Cl)cc2)nn1-c1ccc(S(N)(=O)=O)cc1
Ki (Carbonic anhydrase 1 [1]): 703 nM
Ki (Carbonic anhydrase 2 [2]): 6.9 nM
Ki (Carbonic anhydrase 9 [3]): 73.2 nM

Nc1nc(C(=O)NNC(=O)Nc2ccc(Cl)cc2)nn1-c1ccc(S(N)(=O)=O)cc1
Ki (Carbonic anhydrase 1 [1]): 537 nM
Ki (Carbonic anhydrase 2 [2]): 10.9 nM
Ki (Carbonic anhydrase 9 [3]): 16.4 nM

Nc1nc(NC(=O)Nc2ccc(F)cc2)nn1-c1ccc(S(N)(=O)=O)cc1
Ki (Carbonic anhydrase 1 [1]): 94.4 nM
Ki (Carbonic anhydrase 2 [2]): 65.5 nM
Ki (Carbonic anhydrase 9 [3]): 7.8 nM

Nc1nc(C(=O)N/N=C/c2ccc(F)cc2)nn1-c1ccc(S(N)(=O)=O)cc1
Ki (Carbonic anhydrase 1 [1]): 495 nM
Ki (Carbonic anhydrase 2 [2]): 65.2 nM
Ki (Carbonic anhydrase 9 [3]): 31.5 nM

Cc1ccc(NC(=O)Nc2nc(N)n(-c3ccc(S(N)(=O)=O)cc3)n2)cc1
Ki (Carbonic anhydrase 1 [1]): 313 nM
Ki (Carbonic anhydrase 2 [2]): 42.8 nM
Ki (Carbonic anhydrase 9 [3]): 3.9 nM

C/C(=N\NC(=O)c1nc(N)n(-c2ccc(S(N)(=O)=O)cc2)n1)c1ccc(N2CCOCC2)cc1
Ki (Carbonic anhydrase 1 [1]): 793 nM
Ki (Carbonic anhydrase 2 [2]): 53.9 nM
Ki (Carbonic anhydrase 9 [3]): 31.7 nM

Nc1nc(NC(=O)Nc2ccccc2)nn1-c1ccc(S(N)(=O)=O)cc1
Ki (Carbonic anhydrase 1 [1]): 442 nM
Ki (Carbonic anhydrase 2 [2]): 9.8 nM
Ki (Carbonic anhydrase 9 [3]): 8.2 nM

COc1ccc(/C=N/NC(=O)c2nn(-c3ccc(S(N)(=O)=O)cc3)c3nc(C)cc(=O)n23)cc1
Ki (Carbonic anhydrase 1 [1]): 2380 nM
Ki (Carbonic anhydrase 2 [2]): 325 nM
Ki (Carbonic anhydrase 9 [3]): 63.2 nM

Nc1nc(C(=O)N/N=C/c2ccc(N3CCCCC3)cc2)nn1-c1ccc(S(N)(=O)=O)cc1
Ki (Carbonic anhydrase 1 [1]): 825 nM
Ki (Carbonic anhydrase 2 [2]): 95.4 nM
Ki (Carbonic anhydrase 9 [3]): 33 nM

Cc1cc(=O)n2c(C(=O)N/N=C/c3ccc(N4CCN(C)CC4)cc3)nn(-c3ccc(S(N)(=O)=O)cc3)c2n1
Ki (Carbonic anhydrase 1 [1]): 4950 nM
Ki (Carbonic anhydrase 2 [2]): 838 nM
Ki (Carbonic anhydrase 9 [3]): 85 nM

NS(=O)(=O)c1ccc(-n2nnc(C(=O)N/N=C(/CC(=O)c3ccccn3)C(F)(F)F)c2-c2ccccc2)cc1
Ki (Carbonic anhydrase 9 [3]): 0.7 nM

Cc1cc(=O)n2c(C(=O)NN)nn(-c3ccc(S(N)(=O)=O)cc3)c2n1
Ki (Carbonic anhydrase 1 [1]): 1680 nM
Ki (Carbonic anhydrase 2 [2]): 74.7 nM
Ki (Carbonic anhydrase 9 [3]): 45.4 nM

COc1ccc(NC(=O)Nc2nc(N)n(-c3ccc(S(N)(=O)=O)cc3)n2)cc1
Ki (Carbonic anhydrase 1 [1]): 695 nM
Ki (Carbonic anhydrase 2 [2]): 127 nM
Ki (Carbonic anhydrase 9 [3]): 3.3 nM
inhibition at 0.25 h, 0.01 µM (Carbonic anhydrase 1 [4]): 14%
inhibition at 0.25 h, 0.1 µM (Carbonic anhydrase 1 [5]): 31%
inhibition at 0.25 h, 1 µM (Carbonic anhydrase 1 [6]): 63%
inhibition at 0.25 h, 10 µM (Carbonic anhydrase 1 [7]): 75%
inhibition at 0.25 h, 0.01 µM (Carbonic anhydrase 2 [8]): 15%
inhibition at 0.25 h, 0.1 µM (Carbonic anhydrase 2 [9]): 48%
inhibition at 0.25 h, 1 µM (Carbonic anhydrase 2 [10]): 76%
inhibition at 0.25 h, 10 µM (Carbonic anhydrase 2 [11]): 85%
inhibition (Carbonic anhydrase 9 [12]): 18 to 20%
inhibition (Carbonic anhydrase 9 [13]): 45 to 47%
inhibition (Carbonic anhydrase 9 [14]): 72 to 74%
inhibition (Carbonic anhydrase 9 [15]): 79 to 81%
